Source: paper PMC9374667 (Communications Biology, 2022)
Values joined by “and” are separate entries in the source; they are usually repeats but may differ in a detail not shown here. Identical values can stand only once.

Tests used:
db/db mice [1] = assay: Body weight of db/db mice during 35-day treatment; assay type: in vivo; details: db/db mice
Description: (§1) The lean wild type control and the db/db control mice were given equal vehicle volume (0.5% CMC-Na solution). All mice were monitored for food intake, body weight, and fasting blood glucose during the 35-day trial. Glucose tolerance test (GTT) and insulin resistance test (ITT) were performed at 4 and 5 weeks of treatment, respectively. Metabolic analysis was performed at 5 weeks of treatment. At the end of the study, blood samples were taken through the retroorbital venous sinus of mice, fat depots (brown fat, inguinal subcutaneous fat, epididymal fat, perirenal fat and mesenteric fat depot) were dissected, weighed, and immediately frozen in liquid nitrogen and stored at −80 °C until required. Weight of fat depots are expressed in percentage (fat depots weight /bodyweight * 100%).

db/db mice [2] = assay: Fasting serum insulin levels (ELISA); assay type: in vivo; details: db/db mice; for insulin level (Figure 5b): fasting serum, individual mice 1-6; for Fasting serum insulin levels: 35 days of treatment, vs vehicle
Description: Mice were fasted for 4 h for insulin resistance test and intraperitoneally injected with 1 unit/kg of insulin. Blood glucose levels were measured from the tail vein blood at 0, 15, 30, 45, 60, 90, and 120 min after injection. Plasma insulin levels were measured using an ultrasensitive mouse insulin ELISA kit (Nanjing Jiancheng Bioengineering Institute, Nanjing, China).

db/db mice [3] = assay: Fat depots weight (BAT, iWAT, eWAT; percentage of body weight); assay type: in vivo; parameters: key to BAT fat depot weight (Figure 4c): % of body weight (fat depot weight / body weight * 100%); details: db/db mice; for eWAT fat depot weight (Figure 4c) / iWAT fat depot weight (Figure 4c): in %; for Fat depots weight / body weight: individual mice
Description: as §1

db/db mice [4] = assay: Serum CHO, TG, FFA, LDL-C, HDL-C and ADPN in the fasted state; assay type: in vivo; details: db/db mice; for ADPN (Figure 4j) / FFA (Figure 4g) / HDL-C (Figure 4i) / LDL-C (Figure 4h): serum, individual mice 1-6; for Serum CHO / Serum TG: fasted state, individual mice
Description: The serum was collected by centrifugation at 3000 × g at 4 °C for 15 min and stored at −80 °C until analysis. TG, TC, LDL-C, HDL-C, and FFA were routinely tested on a Chemray 240 automatic biochemical analyzer (Chemray 240, Shenzhen, China). Serum levels of mouse adiponectin, interleukin6 (IL-6), tumor necrosis factor-α (TNF-α) were measured using commercial enzyme-linked immunosorbent assay (ELISA) kits (Nanjing Jiancheng Bioengineering Institute, Nanjing, China) and according to the manufacturer’s instructions. The levels of IL-6, TNF-α in 3T3-L1 adipocyte culture supernatant were also detected by ELISA.

[5] = pH of the solution after 24 hours of the dissolution test; assay type: physicochemical
Description: Solubilities were determined by adding excess sample to 30 mL different mediums, such as HCl solution, acetate buffer, phosphate buffer, SGF, FaSSIF and FeSSIF. The configuration of various buffer solutions is shown in Supplementary Table 2. After being shaken at 400 rpm at 37 °C for 0.5, 1, 2, and 24 h, 0.3 mL of suspension was sampled and centrifuged at 14,000 rpm for 8 min to isolate mother liquor, and then analyzed by HPLC after dilution. All samples were analyzed in triplicate. […]
into a 1000 mL flask followed by addition of about 800 mL of deionized water. The mixture is stirred until all solids are dissolved.
Add about 100 mL of 0.1 N HCl, check pH value with a pH meter and adjust the pH to 2.0 with HCl (1 N) or NaOH (1 N). Then dilute to the volume with deionized water.
* 1N sodium hydroxide: Weigh 8 g NaOH in a 200 mL plastic volumetric flask, add deionized water to volume and mix well. […]
phosphate and 3.093 g sodium chloride in a 500 mL volumetric flask, add about 0.450 L deionized water, and adjust the pH to 6.5 with 1N sodium hydroxide or 1 N hydrochloric acid. Make up to volume (0.5 […]
Step 2: Place and dissolve 1.120 g FaSSIF/FeSSIF/FaSSGF instant powder with 0.250 L of buffer (from step 1) in a 500 mL volumetric flask, then add buffer (from step 1) to volume, and mix well. […]
g sodium chloride in a 500 mL volumetric flask, add about 0.450 L deionized water, and adjust the pH to 5.0 with 1 N sodium hydroxide or 1 N hydrochloric acid. Make up to volume (500 mL) with
Step 2: Place and dissolve 5.600 g FaSSIF/FeSSIF/FaSSGF instant […]
0.750 L deionized water. Make up to volume (1000 mL) with deionized water and placed overnight.
(1 picture or pasted object on this page, not shown here)

[6] = BJ 75mg/kg, individual mice 1-10
[7] = BJ 150mg/kg, individual mice 1-10
[8] = vs vehicle, BJ 75 and 150 mg/kg, BBR 150 mg/kg, Ibu 150 mg/kg

CC(C)Cc1ccc(C(C)C(=O)[O-])cc1.COc1ccc2cc3[n+](cc2c1OC)CCc1cc2c(cc1-3)OCO2.O.O.O.O [BJ, berberine-ibuprofen]
Body weight (db/db mice [1]; 150 mg/kg gavage once per day, day 28, individual mice, 150 mg/kg): 38 grams and 43 grams | Body weight (db/db mice [1]; 150 mg/kg gavage once per day, day 31, individual mice, 150 mg/kg): 40 grams and 46 grams | Body weight (db/db mice [1]; 150 mg/kg gavage once per day, day 34, individual mice, 150 mg/kg): 43 grams and 48 grams | Average body weight gain (db/db mice [1]; 150 mg/kg gavage once per day, day 35, mean ± SD): 5.2 ± 0.9 g | Body weight gain in 5 weeks (db/db mice [1]; 150 mg/kg gavage once per day, individual mice, 150 mg/kg): 6 grams and 5 grams and 4 grams | Body weight compared with vehicle (db/db mice [1]; 5 weeks, BJ 75 and 150 mg/kg, BBR 150 mg/kg, Ibu 150 mg/kg): lower body weight than the db/db mice treated with the vehicle | insulin level (Figure 5b) (db/db mice [2]; BJ 75mg/kg): 10.1686 and 14.5706 and 11.3611 and 13.6498 and 12.9045 and 14.3689 | insulin level (Figure 5b) (db/db mice [2]; BJ 150mg/kg): 10.5413 and 10.778 and 14.6188 and 12.4266 and 11.7294 and 13.6718 | Fasting serum insulin levels (db/db mice [2]; 75 mg/kg): did not produce significant effects | Fasting serum insulin levels (db/db mice [2]; 150 mg/kg): significantly reduced the fasting serum insulin levels | BAT fat depot weight (Figure 4c) (db/db mice [3]; [6]): 1.4827 and 0.5576 and 2.7679 and 1.5898 and 1.8729 and 1.268 and 0.7299 and 1.4681 and 1.4209 and 1.9195 | eWAT fat depot weight (Figure 4c) (db/db mice [3]; [6]): 2.9499 and 3.004 and 3.3073 and 3.0683 and 2.8654 and 1.9039 and 2.9972 and 3.1786 and 2.5863 and 2.885 | iWAT fat depot weight (Figure 4c) (db/db mice [3]; [6]): 2.9834 and 2.2193 and 4.5703 and 3.1934 and 4.0303 and 2.1465 and 2.6777 and 3.7948 and 2.2136 and 4.2859 | eWAT fat depot weight (Figure 4c) (db/db mice [3]; [7]): 2.6032 and 2.4699 and 2.5757 and 2.9739 and 2.5582 and 2.4535 and 2.305 and 2.1485 and 2.4952 and 2.1171 | iWAT fat depot weight (Figure 4c) (db/db mice [3]; [7]): 2.0087 and 2.2014 and 2.1848 and 3.5434 and 3.664 and 1.962 and 0.513 and 2.1562 and 2.8234 and 1.567 | Fat depots weight / body weight (db/db mice [3]; 75 mg/kg for 35 days, 75 mg/kg): 17.3087% and 20.1428% and 17.1651% and 21.4638% and 17.3569% and 14.6768% and 23.7077% and 20.828% and 19.5629% and 16.4679% | Fat depots weight / body weight (db/db mice [3]; 150 mg/kg for 35 days, 150 mg/kg): 11.5274% and 15.536% and 18.4944% and 12.6638% and 16.2402% and 14.3781% and 12.8992% and 19.8596% and 21.4381% and 12.5947% | Fat depots weight compared with vehicle (db/db mice [3]; BJ 75 and 150 mg/kg, BBR 150 mg/kg, Ibu 150 mg/kg): lower fat depots weight than vehicle-treated db/db mice | ADPN (Figure 4j) (db/db mice [4]; BJ 75mg/kg): 460 and 566.78 and 483.17 and 443.62 and 491.01 and 609.29 | FFA (Figure 4g) (db/db mice [4]; BJ 75mg/kg): 641.9 and 692.8 and 709.3 and 711.6 and 731.5 and 667 | HDL-C (Figure 4i) (db/db mice [4]; BJ 75mg/kg): 2.6 and 2.7 and 3.1 and 2.1 and 3 and 2.4 | LDL-C (Figure 4h) (db/db mice [4]; BJ 75mg/kg): 4.35 and 5.54 and 4.19 and 5.48 and 5.18 and 4.51 | ADPN (Figure 4j) (db/db mice [4]; BJ 150mg/kg): 563.3 and 624.62 and 712.07 and 705.63 and 665.38 and 609.46 | FFA (Figure 4g) (db/db mice [4]; BJ 150mg/kg): 697.7 and 666.2 and 614.5 and 627 and 678.9 and 614.6 | HDL-C (Figure 4i) (db/db mice [4]; BJ 150mg/kg): 3.5 and 2.9 and 2.4 and 2.8 and 2.7 and 3.1 | LDL-C (Figure 4h) (db/db mice [4]; BJ 150mg/kg): 3.35 and 4.57 and 3.32 and 3.26 and 3.43 and 3.59 | Serum CHO (db/db mice [4]; 75 mg/kg): 4.2 mmol/L and 4.3 mmol/L and 4.6 mmol/L and 3.4 mmol/L and 6.1 mmol/L and 5.3 mmol/L | Serum TG (db/db mice [4]; 75 mg/kg): 0.92 mmol/L and 1.17 mmol/L and 1.79 mmol/L and 1.19 mmol/L and 1.62 mmol/L and 1.33 mmol/L | Serum CHO (db/db mice [4]; 150 mg/kg): 3.2 mmol/L and 4.9 mmol/L and 4.5 mmol/L and 4.2 mmol/L and 3.7 mmol/L and 4.6 mmol/L | Serum TG (db/db mice [4]; 150 mg/kg): 1.18 mmol/L and 1.01 mmol/L and 1.29 mmol/L and 1.1 mmol/L and 1.5 mmol/L | Serum levels of CHO, TG, FFA and LDL-C (db/db mice [4]; [8]): decreased | Serum levels of HDL-C and adiponectin (ADPN) (db/db mice [4]; [8]): increased | pH of the solution after 24 hours ([5]; Acetate buffer, blank vehicle 4.54): 4.82 | pH of the solution after 24 hours ([5]; CMC-Na, blank vehicle 6.51): 6.70 | pH of the solution after 24 hours ([5]; FaSSIF-v1, blank vehicle 6.51): 5.50 | pH of the solution after 24 hours ([5]; FeSSIF-v1, blank vehicle 5.04): 5.17 | pH of the solution after 24 hours ([5]; HCl solution, blank vehicle 1.08): 1.03 | pH of the solution after 24 hours ([5]; Phosphate buffer, blank vehicle 6.84): 6.90 | pH of the solution after 24 hours ([5]; SGF, blank vehicle 2.03): 5.38
